{"source": "patent US9546129B2", "about": "“DTPA prodrugs, compositions thereof, and methods of using the same” (priority 2012, dated 2017)", "key": {"[1]": {"test_system": "Escherichia coli (E. coli) strain WP2uvrA", "experiment": "Bacterial Reverse Mutation Assay (E. coli)", "assay_type": "cell-based", "conditions": "for Dose level with reductions in mean numbers of revertant colonies (toxicity): WP2uvrA", "protocol": "The objective of this study was to evaluate C2E2 for its ability to induce reverse mutations at the histidine locus in Salmonella typhimurium tester strains TA98, TA100, TA1535, and TA1537, and at the tryptophan locus of Escherichia coli (E. coli) strain WP2uvrA in the presence or absence of an exogenous mammalian metabolic activation system (S9).\nC2E2 was evaluated in an initial mutagenicity assay in all five tester strains at dose levels of 5.00, 16.0, 50.0, 160, 500, 1600, and 5000 μg/plate with and without S9. C2E2 was from Lot 050 obtained using Method 2. C2E2 was prepared in Cell Culture Grade Water vehicle and formed a transparent colorless solution. […] The reductions in the numbers of revertant colonies and the enhanced background lawn growth are indicative of C2E2 treatment-related toxicity. With exception to the enhanced background lawn in TA1537 without S9, all other background lawns in all strains, with and without S9, were normal indicating there was appropriate bacterial growth during treatment to express a mutagenic event. There were no relevant increases in the numbers of revertant colonies observed at any dose level with any strain in the absence or presence of S9 metabolic activation."}, "[2]": {"test_system": "polychromatic erythrocytes (PCE) in Sprague-Dawley rat bone marrow", "experiment": "In vivo micronucleus assay", "protocol": "The objective of this study was to evaluate C2E2 for in vivo clastogenic activity and/or disruption of the mitotic apparatus by detecting micronuclei in polychromatic erythrocytes (PCE) in Sprague-Dawley rat bone marrow.\nC2E2 was formulated in cell culture grade water vehicle and the dose volume for all treatment groups was 20 mL/kg. The C2E2 was from Lot 050 obtained using Method 2.\nMale rats were administered vehicle control, or 500, 1000, or 2000 mg/kg/day of C2E2 once a day for two days separated by approximately 24 hours. The 2000 mg/kg high dose is the limit dose for this assay recommended by ICH S2(R1) guidance. A positive control group of animals received a single 60 mg/kg cyclophosphamide treatment on the second day of dosing. […] Bone marrow was extracted approximately 24 hours after the last treatment in all groups and at least 2000 PCEs per animal were analyzed for the frequency of micronuclei. Cytotoxicity was assessed by scoring the number of PCEs and normochromatic erythrocytes (NCEs) observed while scoring at least 500 erythrocytes per animal."}, "[3]": {"experiment": "Stability of C2E2 in plasma (rat)", "assay_type": "in vitro ADME", "conditions": "37° C., up to two hours", "protocol": "Prior to the study, 975 μL of plasma (Rat, Beagle and Human) was preheated to 37° C. in Eppendorff tubes and the test compound (C2E2) was prepared in DI water (10 mg/mL). The C2E2 was from Lot 050 obtained using Method 2. To initiate the study, 25 μL of the C2E2 solution was added to the pre-heated plasma and briefly vortexed, to mix. At 0, 15, 30, 60 and 120 minutes a 100 μL sample of plasma was taken, an equal volume of cold acetonitrile was added and mixed to precipitate plasma proteins. Samples were centrifuged at 4° C. and 14,000×g for 10 minutes to remove precipitated proteins, the supernatant was collected and the C2E2 concentration determined by HPLC-CAD. All conditions were repeated in triplicate.\nHPLC Detection Methods: C2E2 analysis was performed on a prominence HPLC (Shimadzu Corporation, Kyoto, Japan) equipped with a Corona Ultra charged […] detector (CAD) (Thermo scientific, Sunnyvale, Calif.). […]\nThe gradient is 0.01-34.99 min: 22% B; 35.00-44.99 min: 33% B; 45.00-60.00 min: 38% B. The flow rate is 1.0 mL/min, a Thermo Hypersil ODS column (150 mm 4.6 mm i.d. with 5.0 μm particles) will be used, injection volume will be 10 μL and column oven temperature maintained at 25° C. […] The limit of quantification is 0.35 μg/mL. […]"}}, "data": [{"molecule": "CCOC(=O)CN(CCN(CCN(CC(=O)O)CC(=O)OCC)CC(=O)O)CC(=O)O", "note": "[C2E2, 6,9-bis(carboxymethyl)-3-(2-ethoxy-2-oxoethyl)-11-oxo-12-oxa-3,6,9-triazatetradecan-1-oic acid]", "values": [{"measurement": "Dose level with reductions in mean numbers of revertant colonies (toxicity)", "setting": "[1]; with S9", "result": "≥ 500", "unit": "μg/plate"}, {"measurement": "Dose level with reductions in mean numbers of revertant colonies (toxicity)", "setting": "[1]; without S9", "result": 5000, "unit": "μg/plate"}, {"measurement": "Mutagenicity (reverse mutations at the tryptophan locus)", "setting": "[1]; up to 5000 μg/plate, with and without S9", "result": "negative"}, {"measurement": "Bone marrow cytotoxicity (PCE:NCE ratios)", "setting": "[2]; 500, 1000, 2000 mg/kg/day x2 days, male rats", "result": "absence of treatment-related bone marrow cytotoxicity"}, {"measurement": "Induction of micronuclei in rat bone marrow", "setting": "[2]; 500, 1000, or 2000 mg/kg/day orally once a day for 2 days, male rats", "result": "negative"}, {"measurement": "Clinical signs", "setting": "[2]; one 2000 mg/kg/day animal, Day 2", "result": "audible respiration and hypoactive behavior"}, {"measurement": "Metabolism in plasma (observation)", "setting": "[3]", "result": "minimal or not detected"}]}]}
